Laboratory results taken from patent US20260000645A1, “USE OF EBSELEN OR ONE OF THE DERIVATIVES THEREOF TO TREAT MITOCHONDRIAL PATHOLOGIES OR DYSFUNCTIONS” (ASSOCIATION FRANCAISE CONTRE LES MYOPATHIES, priority 2022, published 2026).

Tests used:
[1] = test system: mutant yeast strains (cox2, sym1, fmc1, atp6, taz1, shy1, A29G); assay: Halos test: respiratory growth of mutant yeast strains on non-fermentable solid medium; assay type: cell-based, Saccharomyces cerevisiae; conditions: 30 and 90 nmoles on filter, 28° C. or 36° C., 4 to 5 days
Description: Each of the strains of the yeast Saccharomyces cerevisiae used in these examples contain different specific mutations modeling human mutations leading to mitochondrial illnesses. At varying degrees, all these mutant yeast strains have a growth defect when cultivated on a respiratory medium such as ethanol or glycerol at 28° C. or 36° C. (depending on the strain).
• fmc: MC6 MATa ade2-1 his3-11,15 trp1-1 leu2-3,112 ura3-I fmc1: :HIS3 [Δi ER OR] (Schwimmer, C. et al. (2005) J Biol Chem, 280, 30751-30759) for the first screening • MR14 MATa ade2-1 his3-11,15 trp1-1 leu2-3,112 ura3-1 CAN1 arg8::HIS3 ρ+ atp6-L173R or RKY20MATa ade2-1 his3-11,15 trp1-1 leu2-3,112 ura3-1 CAN1 arg8::HIS3 ρ+ atp6-L173P (Rak, M. et al. (2007) J Biol Chem, 282, 34039-34047) for the second screening • taz1Δ: this strain was produced by substituting the open reading framework of TAZ1 by that of TRP1 in the strain W303-1A (MATa ade2-1 ura3-1 his311, 15 trp1-1 leu2-3, 112 can1-100) (from Taffin de Tilques, M. et al. (2017) Dis Model Mech, 10, 439-450) • shy1-G137R: this mutant was produced in the strain CW252 containing the nuclear base of W303 and a mitochondrial gene lacking intron. […]

mutant yeast strain taz1 = assay: Respiratory growth in liquid culture (bioscreen, OD600); assay type: cell-based, Saccharomyces cerevisiae; conditions: taz1, liquid respiratory medium
Description: In order to determine the optimum concentration of EBS leading to the suppression of a respiratory growth defect of the mutant yeast strain, cells undergoing exponential growth were inoculated in fresh Ethanol YPA non-fermentable media supplemented or not supplemented with increasing concentrations of EBS. The growth of cells in the liquid respiratory medium was monitored using the bioscreen system over a period of 80 h during which (OD600 nm) cell densities were sampled every 20 minutes.

[2] = test system: fibroblast lines of patients carrying mutations of the nuclear gene NDUFV1; assay: Mitochondrial respiration of NDUFV1 patient fibroblasts (Seahorse XF96); assay type: cell-based, human; conditions: 48 h exposure
Description: EBS was also tested for the ability thereof to restore mitochondrial respiration of fibroblast lines of patients carrying mutations of the nuclear gene NDUFV1 of mitochondrial complex I. The human lines NDUFV1 mimicking the human illnesses related to a mitochondrial deficit of complex I (Leigh's syndrome) are carriers of genetic mutations affecting the gene NDUFV1. These cell lines were cultivated in a DMEM medium containing 1.0 g/L of glucose and 1 mM of sodium pyruvate and 50 μg/ml of uridine (Sigma Aldrich, Lyon, France).
The respiration was measured using a Seahorse XF96 extracellular flow metabolic analyzer in 96 well plates according to the manufacturer's protocol (Agilent Technologies). Deficient cells were exposed for 48 h to different concentrations with a dose response curve associating a range of concentrations from 25 nM to 10 μM. […]
The measurement of the oxygen consumption rate (OCR) was recorded under basal conditions to evaluate the mitochondrial respiratory activity and then the cells were treated sequentially with 4 μg/mL of oligomycin and 1.5 μM of carbonyl cyanide p-(trifluoromethoxy) phenylhydrazone (FCCP) (Sigma-Aldrich). The basal OCR, the respiration related to ATP, the maximum respiratory capacity and the respiration by proton leak were determined. […] Maximum respiratory capacity has been determined as the rate of respiration in the presence of uncoupling FCCP. […]

For O=c1c2ccccc2[se]n1-c1ccccc1 [ebselen, 2-phenyl-1,2-benzisoselenazol-3(2H)-one], the “respiratory growth (halo of improved growth)” value [1] was “active on all the mutant strains of yeast tested in a dose dependent manner”, the “active concentration range, lower limit” value (mutant yeast strain taz1) was at least 1 nM and the “active concentration range, upper limit” value (mutant yeast strain taz1) was at most 3 µM. For the same molecule, the optimum concentration (mutant yeast strain taz1) was 1 µM, the toxic concentration (mutant yeast strain taz1; 80 h) was at least 27 µM and the toxic concentration [2] was over 10 µM.
